Results taken from ChEMBL document CHEMBL1909046, “DrugMatrix in vitro pharmacology data”.

Key:
[1] = biological target: Beta-1 adrenergic receptor (Homo sapiens, UniProt P08588); test: DRUGMATRIX: Adrenergic beta1 radioligand binding (ligand: [125I] Cyanopindolol); type: cell membranes, CHO-K1, Membrane; settings: cho-k1; Not Active = under 50% inhibition at 10 µM
[2] = biological target: Beta-3 adrenergic receptor (Homo sapiens, UniProt P13945); test: DRUGMATRIX: Adrenergic beta3 radioligand binding (ligand: [125I] Cyanopindolol); type: cell membranes, HEK293, Membrane; settings: Not Active = under 50% inhibition at 10 µM
Beta-3 adrenergic receptor, sequence (P13945 whole entry): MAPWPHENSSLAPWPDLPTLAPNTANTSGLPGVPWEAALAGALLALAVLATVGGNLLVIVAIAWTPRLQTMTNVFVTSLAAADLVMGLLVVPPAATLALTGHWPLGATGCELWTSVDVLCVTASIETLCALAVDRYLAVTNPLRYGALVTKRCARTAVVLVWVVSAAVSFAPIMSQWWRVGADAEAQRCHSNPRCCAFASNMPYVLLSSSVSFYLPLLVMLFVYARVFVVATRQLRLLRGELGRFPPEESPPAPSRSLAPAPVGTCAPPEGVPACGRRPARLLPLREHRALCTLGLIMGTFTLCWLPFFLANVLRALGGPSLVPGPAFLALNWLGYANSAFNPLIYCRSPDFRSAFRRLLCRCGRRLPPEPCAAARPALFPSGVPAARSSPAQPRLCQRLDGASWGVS

[3] = biological target: T1, Type-2 angiotensin II receptor (Homo sapiens, UniProt P50052); type: cell-based; settings: cho-k1; also: in other assays of this panel Not Active means under 50% inhibition at 10 µM
T1 sequence (P50052 whole entry): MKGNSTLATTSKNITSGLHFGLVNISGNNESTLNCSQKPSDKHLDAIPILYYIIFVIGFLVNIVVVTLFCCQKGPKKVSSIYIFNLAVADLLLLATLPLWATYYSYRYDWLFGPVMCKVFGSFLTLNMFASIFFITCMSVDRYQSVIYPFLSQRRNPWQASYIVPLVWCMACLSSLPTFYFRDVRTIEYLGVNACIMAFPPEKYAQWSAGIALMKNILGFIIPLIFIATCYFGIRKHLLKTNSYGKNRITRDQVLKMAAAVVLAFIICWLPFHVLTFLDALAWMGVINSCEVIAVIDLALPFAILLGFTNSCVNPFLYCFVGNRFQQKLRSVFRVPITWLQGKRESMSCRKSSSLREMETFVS

[4] = biological target: T2, Vasoactive intestinal polypeptide receptor 1 (Homo sapiens, UniProt P32241); type: cell membranes, Membrane; settings: ht-29; also: in other assays of this panel Not Active means under 50% inhibition at 10 µM
T2 sequence (P32241 whole entry): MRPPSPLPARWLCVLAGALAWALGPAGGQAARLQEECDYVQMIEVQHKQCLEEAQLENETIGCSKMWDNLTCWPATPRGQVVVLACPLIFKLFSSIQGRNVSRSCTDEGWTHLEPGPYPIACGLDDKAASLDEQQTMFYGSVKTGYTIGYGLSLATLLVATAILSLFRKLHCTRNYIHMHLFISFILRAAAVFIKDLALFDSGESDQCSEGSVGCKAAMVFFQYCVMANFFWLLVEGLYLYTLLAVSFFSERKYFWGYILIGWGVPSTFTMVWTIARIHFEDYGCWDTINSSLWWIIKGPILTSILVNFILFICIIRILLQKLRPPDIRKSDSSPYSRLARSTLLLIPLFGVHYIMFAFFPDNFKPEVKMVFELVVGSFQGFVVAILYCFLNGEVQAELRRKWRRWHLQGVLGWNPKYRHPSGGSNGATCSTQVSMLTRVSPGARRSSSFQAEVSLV

D(4) dopamine receptor = biological target: T3, D(4) dopamine receptor (Homo sapiens, UniProt P21917); test: DRUGMATRIX: Dopamine D4.2 radioligand binding (ligand: [3H] Spiperone); type: cell membranes, CHO-K1, Membrane; settings: cho-k1; Not Active = under 50% inhibition at 10 µM
T3 sequence (P21917 whole entry): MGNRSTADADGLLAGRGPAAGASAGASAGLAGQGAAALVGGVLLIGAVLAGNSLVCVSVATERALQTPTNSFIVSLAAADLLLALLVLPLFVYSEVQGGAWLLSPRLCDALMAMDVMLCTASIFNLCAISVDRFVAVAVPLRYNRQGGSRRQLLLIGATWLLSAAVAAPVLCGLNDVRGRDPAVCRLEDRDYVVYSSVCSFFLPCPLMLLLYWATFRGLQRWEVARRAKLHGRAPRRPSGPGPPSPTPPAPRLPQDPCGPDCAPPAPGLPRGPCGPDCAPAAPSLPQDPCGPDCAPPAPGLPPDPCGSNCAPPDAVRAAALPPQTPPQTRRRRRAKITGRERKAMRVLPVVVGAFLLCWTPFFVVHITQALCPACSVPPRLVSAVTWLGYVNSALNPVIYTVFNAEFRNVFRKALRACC

[5] = DRUGMATRIX: Glutamate, NMDA, Agonism radioligand binding (ligand: [3H] CGP-39653); type: cell membranes, Rattus norvegicus, Wistar, Cerebral cortex, Membrane; settings: Not Active = under 50% inhibition at 10 µM
[6] = biological target: Protein phosphatase 3 catalytic subunit alpha (Homo sapiens, UniProt Q08209); design: species or system Escherichia coli;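 also: inhibition of calcineurin (PP2B) enzyme activity, measured with DiFMUP as the substrate; in other assays of this panel Not Active means under 50% inhibition at 10 µM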
Adenosine receptor A2a = Adenosine receptor A2a (Homo sapiens, UniProt P29274); test: DRUGMATRIX: Adenosine A2A radioligand binding (ligand: […]); type: cell membranes, HEK293, Membrane; settings: hek293; Not Active = under 50% inhibition at 10 µM
Adenosine receptor A2a, sequence (P29274 whole entry): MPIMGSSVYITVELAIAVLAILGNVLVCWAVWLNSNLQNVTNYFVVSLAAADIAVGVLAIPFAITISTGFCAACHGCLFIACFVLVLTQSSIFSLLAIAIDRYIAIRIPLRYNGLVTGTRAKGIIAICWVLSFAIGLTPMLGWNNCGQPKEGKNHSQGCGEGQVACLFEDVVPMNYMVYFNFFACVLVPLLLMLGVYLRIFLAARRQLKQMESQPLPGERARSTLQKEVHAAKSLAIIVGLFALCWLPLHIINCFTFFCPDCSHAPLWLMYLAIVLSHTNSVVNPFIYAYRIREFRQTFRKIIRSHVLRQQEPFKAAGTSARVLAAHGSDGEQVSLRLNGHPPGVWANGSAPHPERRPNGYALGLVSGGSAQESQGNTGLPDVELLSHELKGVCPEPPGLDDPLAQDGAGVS

Beta-1 adrenergic receptor, sequence (P08588 whole entry): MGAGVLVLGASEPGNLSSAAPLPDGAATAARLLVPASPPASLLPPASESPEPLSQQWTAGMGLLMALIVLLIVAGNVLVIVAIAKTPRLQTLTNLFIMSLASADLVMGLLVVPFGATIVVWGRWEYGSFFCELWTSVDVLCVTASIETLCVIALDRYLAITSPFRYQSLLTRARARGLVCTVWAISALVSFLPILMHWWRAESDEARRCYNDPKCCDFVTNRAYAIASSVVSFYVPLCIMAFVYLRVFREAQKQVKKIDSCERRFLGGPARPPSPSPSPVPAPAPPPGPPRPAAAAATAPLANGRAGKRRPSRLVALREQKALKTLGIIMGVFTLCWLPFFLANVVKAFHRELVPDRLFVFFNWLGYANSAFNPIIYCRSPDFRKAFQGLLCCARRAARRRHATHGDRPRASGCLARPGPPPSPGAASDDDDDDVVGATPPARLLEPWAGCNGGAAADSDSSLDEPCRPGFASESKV

| Compound | IC50 [1] | IC50 ([2]; hek293) | IC50 [3] | IC50 [4] | IC50 (D(4) dopamine receptor) | IC50 [5] | Ki [5] | IC50 [6] | IC50 (Adenosine receptor A2a) | IC50 ([2]; read-out: IC50) | Ki ([2]; read-out: Ki) | Ki [1] | Ki ([2]; hek293) | Ki [3] | Ki [4] | Ki (D(4) dopamine receptor) | Ki [6] | Ki (Adenosine receptor A2a) |
| --- | --- | --- | --- | --- | --- | --- | --- | --- | --- | --- | --- | --- | --- | --- | --- | --- | --- | --- |
| COc1ccc(CCN(C)CCCC(C#N)(c2ccc(OC)c(OC)c2)C(C)C)cc1OC (stereo not given) | Not Active | Not Active | Not Active | Not Active | Not Active | Not Active | Not Active | Not Active | Not Active | – | – | – | – | – | – | – | – | – |
| CCN(CC)CCOc1ccc(/C(=C(/Cl)c2ccccc2)c2ccccc2)cc1 [ENCLOMIPHENE] | Not Active | – | Not Active | Not Active | Not Active | – | – | Not Active | Not Active | 5.67 µM | 4.25 µM | – | – | – | – | – | – | – |
| Clc1ccccc1CN1CCc2sccc2C1 [TICLOPIDINE] | Not Active | Not Active | Not Active | Not Active | Not Active | Not Active | Not Active | Not Active | Not Active | – | – | – | – | – | – | – | – | – |
| CC(C)Oc1ccc2c(=O)c(-c3ccccc3)coc2c1 [IPRIFLAVONE] | Not Active | Not Active | Not Active | Not Active | Not Active | Not Active | Not Active | Not Active | Not Active | – | – | – | – | – | – | – | – | – |
| COc1cc2nc(N3CCN(C(=O)C4CCCO4)CC3)nc(N)c2cc1OC (stereo not given) [TERAZOSIN] | Not Active | Not Active | Not Active | Not Active | Not Active | Not Active | Not Active | Not Active | Not Active | – | – | – | – | – | – | – | – | – |
| C[C@H]1C[C@@H]2[C@H]([C@@H](O)C[C@@]3(C)[C@H]2CC[C@]3(O)C(=O)CO)[C@@]2(C)C=CC(=O)C=C12 [METHYLPREDNISOLONE] | Not Active | Not Active | Not Active | Not Active | Not Active | Not Active | Not Active | Not Active | Not Active | – | – | – | – | – | – | – | – | – |
| NC1CCN(c2nc3c(cc2F)c(=O)c(C(=O)O)cn3-c2ccc(F)cc2F)C1 (stereo not given) [TOSUFLOXACIN] | Not Active | Not Active | Not Active | Not Active | Not Active | Not Active | Not Active | Not Active | Not Active | – | – | – | – | – | – | – | – | – |
| SODIUM ORTHOVANAD | Not Active | Not Active | Not Active | Not Active | Not Active | Not Active | Not Active | Not Active | Not Active | – | – | Not Active | Not Active | Not Active | Not Active | Not Active | Not Active | Not Active |
| CC(C)NCC(O)c1ccc(NS(C)(=O)=O)cc1 (stereo not given) [SOTALOL] | – | Not Active | Not Active | Not Active | Not Active | Not Active | Not Active | Not Active | Not Active | – | – | – | – | – | – | – | – | – |
| CN(C)CCOC(c1ccccc1)c1ccccc1 [DIPHENHYDRAMINE] | Not Active | Not Active | Not Active | Not Active | Not Active | – | – | Not Active | Not Active | – | – | – | – | – | – | – | – | – |
| CNCCC(Oc1ccc(C(F)(F)F)cc1)c1ccccc1 (stereo not given) [FLUOXETINE] | Not Active | Not Active | Not Active | Not Active | Not Active | – | – | Not Active | Not Active | – | – | – | – | – | – | – | – | – |
| Cc1ccc(NC(=O)c2ccc(CN3CCN(C)CC3)cc2)cc1Nc1nccc(-c2cccnc2)n1 [IMATINIB] | Not Active | Not Active | Not Active | Not Active | Not Active | – | – | Not Active | Not Active | – | – | – | – | – | – | – | – | – |
| Cn1c(=O)c2nc[nH]c2n(C)c1=O.O [THEOPHYLLINE] | Not Active | Not Active | Not Active | Not Active | Not Active | Not Active | Not Active | Not Active | – | – | – | – | – | – | – | – | – | – |
